From patent EP0296592A2, “Aminopropanol derivatives of 3-(2-hydroxyphenyl)-1-propanone, process for their preparation and medicines containing these compounds” (Helopharm W. Petrik GmbH & Co.KG., priority 1987, dated 1988) come the findings set out here.

SMILES strings stand for the structures. Counter-ions that a name gives are not always drawn. Like-named read-outs stand apart in the source and are kept apart here.

Series [1] concerns Purkinje-Fasern aus Hundeherzen. The series is described as follows: Electrophysiological studies on Purkinje fibres (Vmax). Particulars: for IC20: purkinje, read-out: C20 Vmax. It is filed as cell-based, Hund. From the text: Die antiarrhythmische Wirksamkeit der erfindungsgemäßen Verbindungen wurde sowohl anhand von elektrophysiologischen Studien an Purkinje-Fasern aus Hundeherzen sowie mit Hilfe von Ouabain-induzierten ventrikulären Tachykardien bei Hunden bestimmt. […]
Als zusätzliches Kriterium wurde der Vorzeitigkeitsindex (Prematurity-Faktor) bestimmt, der die erwünschte Wirksamkeit der erfindungsgemäßen Verbindungen bei vorzeitigen Extrasystolen charakterisiert.

The test system of series [2] is Meerschweinchen-Papillarmuskel. The series is described as follows: Contraction force of the heart on papillary muscle (negative inotropy). Type of series: cell-based. Particulars: for IC20: concentration that reduces contraction of the papillary muscle by 20 %, read-out: C20 CF. From the text:
Die Wirkung auf die Kontraktionskraft des Herzens wurde am Meerschweinchen-Papillarmuskel untersucht. Hämodynamische Studien wurden bei gesunden, wie auch akut infarzierten Hunden durchgeführt.

Series [3] in a line: Acute toxicity LD50, rat i.v. Particulars: in vivo, iv, Ratte (i.v.), read-out: LD₅₀. From the text: (§1) Dies ergibt sich aus einem Vergleich der LD₅₀-Werte bei Ratten und Mäusen, die in Tabelle (II) zusammengefaßt sind. Tabelle I
Series [4] in a line: Acute toxicity LD50, mouse i.v. Particulars: in vivo, iv, Maus (i.v.), read-out: LD₅₀.
From the text: as §1

Setting [5] is: (% of control Vmax at cycle length 2000) / (% of control Vmax at cycle length 500) at C20 Vmax.
The mark [6] stands for this setting: (% of control Vmax at premature extrasystoles) / (% of control Vmax at a normal beat) at Vmax.

As to `CCCNCC(O)COc1ccccc1C(=O)CCc1ccccc1` (centres unmarked) [A, Propafenon, reference compound], in series [1], the “C20 Vmax” value is 3,7 µM, the “Prematurity Faktor Vmax” value is reported as 0,97 and the “Rate-Faktor von Vmax” value is 1,08. Moreover, the “C20 CF” value in series [2] was 5,3 µM.
For `CCCNCC(O)COc1ccccc1CCC(=O)c1ccc(OC)c(OC)c1.Cl` (centres unmarked) [Beispiel 1, 1-(3,4-Dimethoxyphenyl)-3-[2′-(2-hydroxy-3-n-propylaminopropoxy)-phenyl]-1-propanon-hydrochlorid], the LD50 in series [3] was found to be 17 mg/kg; in series [4] it was 16 mg/kg. Also, the “Rate-Faktor von Vmax” value in series [1] (setting [5]) is recorded as 5,00. Also, in series [1] (setting [6]), the “Prematurity Faktor Vmax” value was 0,50. Further, the IC20 in series [1] worked out at 12.5 µM; in series [2], 15 µM.
Regarding `CCC(C)(C)NCC(O)COc1ccccc1CCC(=O)c1ccc(OC)c(OC)c1.Cl` (centres unmarked) [Beispiel 2, 1-(3,4-Dimethoxyphenyl)-3-[2′-(2-hydroxy-3-tert.-pentylamino-propoxy)-phenyl]-1-propanon-hydrochlorid], the “Rate-Faktor von Vmax” value in series [1] (setting [5]) is on record as 1,27. In series [1] (setting [6]), the “Prematurity Faktor Vmax” value is 1,15. Also, the IC20 in series [1] is 3.6 µM; in series [2], 8 µM.
In the same order, the values of `COc1ccc(C(=O)CCc2ccccc2OCC(O)CNC(C)C)cc1OC.Cl` (centres unmarked) [Beispiel 4, 1-(3,4-Dimethoxyphenyl)-3-[2′-(2-hydroxy-3-isopropylamino-propoxy)-phenyl]-1-propanon-hydrochlorid] are 1,13, 1,01, 4.8 µM and 22 µM.
As to `COc1ccc(C(=O)CCc2ccccc2OCC(O)CNC(C)(C)C)cc1OC.Cl` (centres unmarked) [Beispiel 5, 1-(3,4-Dimethoxyphenyl)-3-[2′-(2-hydroxy-3-tert.-butylamino-propoxy)-phenyl]-1-propanon-hydrochlorid], the “Rate-Faktor von Vmax” value in series [1] (setting [5]) is listed as 1,39. The “Prematurity Faktor Vmax” value in series [1] (setting [6]) is reported as 0,98. Further, the results for the IC20 in series [1] and in series [2] were 4.4 µM and 12 µM, respectively.
Turning to `COc1ccc(C(=O)CCc2ccccc2OCC(O)CN2CCCCC2)cc1OC` (centres unmarked) [Beispiel 6], in series [1], the “C20 Vmax” value is listed as 11,3 µM, the “Prematurity Faktor Vmax” value was 0,70 and the “Rate-Faktor von Vmax” value was 1,32. In addition, the “C20 CF” value in series [2] is on record as 20,0 µM.
Turning to `COc1ccc(C(=O)CCc2ccccc2OCC(O)CNCC(C)O)cc1OC` (centres unmarked) [Beispiel 7, 1-(3,4-Dimethoxyphenyl)-3-[2′-(2-hydroxy-3(2˝-hydroxy-propylamino)-propoxy)-phenyl]-1-propanon-hydrochlorid], in series [1], the “C20 Vmax” value was 5,7 µM, the “Prematurity Faktor Vmax” value is 0,98 and the “Rate-Faktor von Vmax” value is recorded as 1,39. Also, the “C20 CF” value in series [2] is 18,0 µM.
For `COc1ccc(C(=O)CCc2ccccc2OCC(O)CNCCO)cc1OC` (centres unmarked) [Beispiel 8, 1-(3,4-Dimethoxyphenyl)-3-[2′-(2-hydroxy-3(2˝-hydroxy-ethylamino)-propoxy)-phenyl]-1-propanon-hydrochlorid], in that order: 8,3 µM, 0,97, 1,34 and 13,0 µM.
For `CCC(CO)NCC(O)COc1ccccc1CCC(=O)c1ccc(OC)c(OC)c1` (centres unmarked) [Beispiel 9, 1-(3,4-Dimethoxyphenyl)-3-[2′-(2-hydroxy-3-(1˝-hydroxy-but-2-ylamino)-propoxy)-phenyl]-1-propanon-oxalat], in that order: 10,2 µM, 0,97, 1,30 and 25,0 µM.
For `COc1cc(C(=O)CCc2ccccc2OCC(O)CNC(C)C)cc(OC)c1OC.Cl` (centres unmarked) [Beispiel 12, 1-(3,4,5-Trimethoxyphenyl)-3-[2′-(2-hydroxy-3-isopropylamino-propoxy)-phenyl]-1-propanon-hydrochlorid], in series [1] (setting [5]), the “Rate-Faktor von Vmax” value is reported as 1,14. The “Prematurity Faktor Vmax” value in series [1] (setting [6]) is on record as 0,90. Moreover, the figures for the IC20 in series [1] and in series [2] were 5.8 µM and 18 µM, respectively.
For `COc1cc(C(=O)CCc2ccccc2OCC(O)CNC2CCCCC2)cc(OC)c1OC.Cl` (centres unmarked) [Beispiel 16, 1-(3,4,5-Trimethoxyphenyl)-3-[2′-(2-hydroxy-3-cyclohexylamino-propoxy)-phenyl]-1-propanon-hydrochlorid], in that order: 5,00, 0,50, 11.9 µM and 9 µM.
In the case of `COc1cccc(C(=O)CCc2ccccc2OCC(O)CNC(C)C)c1.Cl` (centres unmarked) [Beispiel 24, 1-(3-Methoxyphenyl)-3-[2′-(2-hydroxy-3-isopropylamino-propoxy)-phenyl]-1-propanon-hydrochlorid], the “Rate-Faktor von Vmax” value in series [1] (setting [5]) is given as 1,15. Besides, the “Prematurity Faktor Vmax” value in series [1] (setting [6]) is given as 1,01. For the same compound, the IC20 amounted to 1.6 µM in series [1] and 10 µM in series [2].
With `CCCNCC(O)COc1ccccc1CCC(=O)c1cccc(OC)c1.Cl` (centres unmarked) [Beispiel 26, 1-(3-Methoxyphenyl)-3-[2′-(2-hydroxy-3-n-propylamino-propoxy)-phenyl]-1-propanon-hydrochlorid], in series [1] (setting [5]), the “Rate-Faktor von Vmax” value is listed as 1,16. In addition, the “Prematurity Faktor Vmax” value in series [1] (setting [6]) is listed as 0,93. The IC20 in series [1] was 1.7 µM; in series [2] it was 3 µM.
With `COc1cccc(C(=O)CCc2ccccc2OCC(O)CNC(C)(C)C)c1.Cl` (centres unmarked) [Beispiel 27, 1-(3-Methoxyphenyl)-3-[2′-(2-hydroxy-3-tert.-butylamino-propoxy)-phenyl]-1-propanon-hydrochlorid], in series [1] (setting [5]), the “Rate-Faktor von Vmax” value is recorded as 0,99. Further, the “Prematurity Faktor Vmax” value in series [1] (setting [6]) is 1,24. In addition, the IC20 in series [1] came out at 1.6 µM; in series [2], 4 µM.
For `COc1ccccc1C(=O)CCc1ccccc1OCC(O)CNC(C)(C)C.Cl` (centres unmarked) [Beispiel 38, 1-(2-Methoxyphenyl)-3-[2′-(2-hydroxy-3-tert.-butylamino-propoxy)-phenyl]-1-propanon-hydrochlorid], the LD50 in series [3] stood at 15 mg/kg; in series [4], 17 mg/kg. Besides, the “Rate-Faktor von Vmax” value in series [1] (setting [5]) is reported as 1,30. Further, in series [1] (setting [6]), the “Prematurity Faktor Vmax” value is given as 0,97. In addition, the IC20 in series [1] amounted to 1.7 µM; in series [2], 7 µM.
As for `Cc1ccc(C(=O)CCc2ccccc2OCC(O)CNC(C)(C)C)cc1.Cl` (centres unmarked) [Beispiel 44, 1-(4-Methylphenyl)-3-[2′-(2-hydroxy-3-tert.-butylamino-propoxy)-phenyl]-1-propanon-hydrochlorid], the “Rate-Faktor von Vmax” value in series [1] (setting [5]) is 1,11. For the same compound, the “Prematurity Faktor Vmax” value in series [1] (setting [6]) was 0,99. Besides, the results for the IC20 in series [1] and in series [2] were 2.6 µM and 6 µM, respectively.
In the same order, the values of `Cl.O=C(CCc1ccccc1OCC(O)CNC1CCCCC1)c1ccccc1` (centres unmarked) [Beispiel 46, 1-Phenyl,-3-[2′-(2-hydroxy-3-cyclohexylamino-propoxy)-phenyl]-1-propanon-hydrochlorid] are 2,50, 0,92, 2.2 µM and 2 µM.
In the same order, the values of `Cl.O=C(CCc1ccccc1OCC(O)CN1CCCCC1)c1ccccc1` (centres unmarked) [Beispiel 47, 1-Phenyl-3-[2′-(2-hydroxy-3-piperidino-propoxy)-phenyl]-1-propanon-hydrochlorid] are 1,08, 0,99, 0.3 µM and 2 µM.
For the compound `CC(C)(C)NCC(O)COc1ccccc1CCC(=O)c1ccccc1.Cl` (centres unmarked) [Beispiel 48, 1-Phenyl-3-[2′-(2-hydroxy-3-tert.-butylamino-propoxy)-phenyl]-1-propanon-hydrochlorid], the “Rate-Faktor von Vmax” value in series [1] (setting [5]) was 1,18. Further, the “Prematurity Faktor Vmax” value in series [1] (setting [6]) is listed as 0,91. In addition, the IC20 was 1 µM in series [1] and 3 µM in series [2].
